According to PMC5754413, “Mass balance, metabolic disposition, and pharmacokinetics of a single oral dose of regorafenib in healthy human subjects” (Cancer Chemotherapy and Pharmacology, 2017):

Legend:
[1] = Metabolite profiling in plasma by HPLC–LSC; assay type: in vivo, human
Description: (§1) Blood and plasma: Blood samples (18.7 mL per each time point) were collected into nonbeaded lithium-heparinized tubes immediately pre-dose and at the following post-dose times: 0.5, 1, 1.5, 2, 2.5, 3, 4, 6, 9, 12, 16, 20, 24, 36, 48, 72, 96, 120, 144, 192, 240, and 288 h. For each sample, 1 mL of whole blood was stored at 4 °C for subsequent LSC and the remainder was processed for plasma. Individual 150 μL plasma samples for each time point were treated with formic acid (20 μL) and acetonitrile (450 μL). The samples were homogenized using a MS2 Minishaker® (IKA® Labortechnik, Staufen im Breisgau, Germany). The precipitated proteins were removed by centrifugation (5 min, 13,000 rpm, Biofuge). After concentrating the supernatant to about 80 μL, methanol (15 μL) was added. The individual samples were analyzed by HPLC with off-line radioactivity detection for metabolite profiling.
(§2) Pharmacokinetic outcome measures were generated by non-compartmental analysis of plasma concentration–time data using WinNonlin v4.1 (Pharsight Corporation) in conjunction with Kincalc v2.50 (Bayer AG). For individual subjects, primary outcome measures were maximum observed concentration (C max) and area under the concentration–time curve from time zero to infinity (AUC). […] The metabolite or regorafenib percentages were calculated by AUC(0–144)metabolite or regorafenib divided by AUC(0–144)radioactivity calculated from data obtained by HPLC–LSC analysis. Secondary outcomes were: time to C max (t max); apparent terminal elimination half-life (t ½); apparent volume of distribution during the terminal phase after extravascular administration (Vz/F); and total body clearance of drug calculated after extravascular administration (e.g., apparent oral clearance) (CL/F). AUC was estimated by the sum of partial areas: partial areas were calculated using the linear (if C i ≤ C i+1) or the logarithmic (if C i > C i+1) trapezoidal rules. The quality of the half-life calculation was assessed based on graphs showing the concentration–time profile. For reliable calculation of the half-life, at least three data points (concentration/time values) were used. The extrapolated portion of the AUC from the last measured data point C(t n) to infinity was calculated using the concentration C last,calc, which was calculated from the log-linear regression line used for half-life calculation rather than C(t n). In addition, appropriate pharmacokinetic parameters were derived from the total radioactivity-versus-time data in blood and plasma.
(§3) Due to the limited amount of radiocarbon associated with many of the samples, analyses were conducted using HPLC with fraction collection followed by off-line LSC. Samples were analyzed on a 150 × 3 mm Prodigy® ODS-3 100A, 3 µm column (Phenomenex, Aschaffenburg, Germany) protected by 8 × 3 mm Nucleosil® 100-3 C18 HD guard columns (Macherey–Nagel, Düren, Germany). Metabolites were separated with a gradient of aqueous potassium dihydrogen phosphate (1 g/L, pH 2.0, mobile phase A) versus acetonitrile (mobile phase B) at a flow rate of 0.5 mL/min (gradient: 0% B at 0 min, linear to 50% B at 10 min, linear to 60% B at 25 min, linear to 80% B at 26 min, plateau at 80% B to 30 min). The radiochemical profile of [^14C]regorafenib-derived radioactivity was determined for all urine samples, plasma extracts, and fecal homogenate extracts. Here, HPLC fractionation into 96-well plates was followed by off-line LSC (Wallac 1450 MicroBeta liquid scintillation analyzer) after adding 150 μL of scintillation cocktail to each well (Ultima-Flo™ AP, PerkinElmer; sampling rate: 10 s/well) using the Wallac 1450 Microbeta™ Plusliquid detector. Reconstructed radiochemical profiles were compiled from the resulting data.

CYP3A4 = test system: CYP3A4; set-up: method as in PMID 24896071, PMID 27734608; conditions: in vitro data; cited from earlier work
UGT1A9 = test system: UGT1A9; set-up: method as in PMID 24896071, PMID 27734608; conditions: in vitro data; cited from earlier work
[2] = Total radioactivity in plasma and whole blood (LSC) after a single oral dose of [14C]regorafenib; assay type: in vivo, human; conditions: for C max of total radioactivity: geometric mean (%CV), N = 4
Description: Subjects were screened within the 28 days before scheduled drug administration and entered the clinical unit 1 day before drug administration. After an overnight fasting, subjects received a single oral 120 mg dose of regorafenib, containing approximately 100 μCi (3.7 MBq) [^14C]regorafenib, as a 6 mL solution in an aqueous PEG-based vehicle (Diluent Sol 30 mL oral, Bayer HealthCare AG) followed by 240 mL water. The associated radiation exposure fell within International Commission on Radiological Protection Guidelines for Category IIa studies (0.1–1 mSv).
as §1
(§4) Liquid samples: Duplicate aliquots of liquid samples were diluted with 1 mL distilled water, if necessary, and mixed with 10 mL Aquasafe 500 Plus scintillation fluid. Levels of radioactivity were measured by LSC (PerkinElmer 2100) with automatic quench correction by an external standard channel ratio method at 13 °C using Ultima Gold™ as the liquid scintillation cocktail. Lower limits of detection (LLOD) were 30 μg-Eq/L for plasma (sample volume 0.5 mL), 50 μg-Eq/L for whole blood (sample volume 0.3 mL), and 0.016 μg-Eq/g for urine (sample weight 1 g).
as §2, with “AG).” for “AG). For individual subjects, primary outcome measures were maximum observed concentration (C max) and area under the concentration–time curve from time zero to infinity (AUC).”, “For reliable calculation of the half-life, at least three data points (concentration/time values) were used.” left out

[3] = Mass balance: urinary and fecal excretion of radioactivity and metabolite pattern in excreta; assay type: in vivo, human
Description: Urine: Urine samples were collected at 12-h intervals post-dose on Day 1 and then at 24-h intervals until 288 h post-dose. Urine was stored at 4 °C until it was divided into aliquots for LSC and subsequent metabolite profiling (aliquots were stored at − 20 °C).
Feces: Fecal samples were collected and homogenized in water on a daily basis until 12 days post-dose. Duplicate aliquots of the homogenates were taken for combustion with oxygen (in preparation for LSC), and separate aliquots were used for metabolite profiling.
as §4
Fecal samples: Duplicate aliquots of fecal homogenate (about 0.3 g) were weighed into Combustocones® containing Combustopads® for combustion analysis. Samples were combusted using a Packard Tri-Carb 307 Automatic Sample Oxidizer. The resultant ^14CO2 generated was collected by absorption in Carbo-Sorb (8 mL) to which Permafluor E+ (10 mL) was added. Radioactivity was quantified using a liquid scintillation analyzer (PerkinElmer 2100), with automatic quench correction using an external standard method as urine sample analysis. Samples were allowed to stabilize with respect to heat and light, and each sample was analyzed for 5 min. Prior to calculation of individual results, a background count rate was determined and subtracted from each sample’s count rate. LOD was 0.05 μg-Eq/g (sample weight 0.3 g).
as §3

[4] = set-up: method as in PMID 22421192, PMID 22568966; conditions: steady state; cited from earlier work
[5] = range between subjects, percent of administered dose

CNC(=O)c1cc(Oc2ccc(NC(=O)Nc3ccc(Cl)c(C(F)(F)F)c3)c(F)c2)ccn1 [Regorafenib, 4-[4-({[4-chloro-3-(trifluoromethyl)phenyl]carbamoyl}amino)-3-fluorophenoxy]-N-methylpyridine-2-carboxamide]
Percent of total AUC(0–144) of radioactivity in plasma ([1]; based on HPLC–LSC, mean): 57.4%
Mean total exposure, AUC(0–144 h) ([1]; plasma, HPLC–LSC): 46.89 mg-Eq·h/L
Enzyme catalyzing oxidative biotransformation (CYP3A4): predominantly catalyzed by CYP3A4
Enzyme catalyzing conjugation with glucuronic acid (UGT1A9): by UGT1A9
Estimated half-lives of total radioactivity, range between subjects ([2]; in vivo): 34 to 42 h
C max of total radioactivity ([2]; plasma): 2.90 mg-Eq/L
% of AUC(144–inf), extrapolated portion ([2]; total radioactivity): % of AUC(144–inf): total (2.6%), extrapolated portion
Binding of regorafenib-derived radioactivity to red blood cells ([2]; whole blood versus plasma radioactivity): does not bind substantially to red blood cells
C max of total radioactivity ([2]; whole blood): 1.95 mg-Eq/L
Dose renally excreted after 96 h ([3]; in vivo): less than 3%
Cumulative renal excretion by 96 h ([3]; mean, percent of dose): 16.6%
Excretion in feces within 8 days ([3]; mean, total radioactivity): 67.7%
Excretion in feces within the first 4 days ([3]; mean, total radioactivity): 46.3%
Radioactivity eliminated in feces, range [3, 5]: 68.3–76.3%
Radioactivity excreted via urine, range [3, 5]: 16.2–24.7%
Secondary maximum of plasma concentration–time profile [4]: 6 to 8 h
Tertiary maximum of plasma concentration–time profile [4]: ~24 h
